Data taken from ChEMBL document CHEMBL3751834, “Insight to the binding mode of triazole RGD-peptidomimetics to integrin-rich cancer cells by NMR and molecular modeling” (Bioorg Med Chem, 2016).
pIC50: −log10 of the molar value. The source made the active and inactive calls. The rule behind the calls is not given here.

Assays:
Integrin alpha-V/beta-3 [1] = molecular target: T1, Integrin alpha-V/beta-3 (Homo sapiens, UniProt P05106+P06756); test: Binding affinity to integrin alphavbeta3 receptor in human ECV304 cells by STD-NMR analysis; assay type: cell-based; settings: ECV-304
Integrin alpha-V/beta-3 [2] = molecular target: T1, Integrin alpha-V/beta-3; test: Displacement of 125-I-echistatin from human placental integrin alphavbeta3 receptor incubated for 3 hrs by microplate scintillation counting analysis

For `O=C(O)C[C@H](NC(=O)Cn1cc(CCCNc2ccccn2)nn1)c1ccc(O)cc1`, the Activity (Integrin alpha-V/beta-3 [1]) was “Active” and the pIC50 (Integrin alpha-V/beta-3 [2]) was 6.66.

For `O=C(O)C[C@H](NC(=O)Cn1cc(CCCNc2nc3ccccc3[nH]2)nn1)c1ccccc1`, the Activity (Integrin alpha-V/beta-3 [1]) was “Active”, the IC50H (Integrin alpha-V/beta-3 [2]) was 12 nM and the IC50L (Integrin alpha-V/beta-3 [2]) was 1120 nM.

For `N=C(N)NCCCc1cn(CC(=O)N[C@@H](CC(=O)O)c2ccc(O)cc2)nn1`, the Activity (Integrin alpha-V/beta-3 [1]) was “Active”.

For `O=C(O)C[C@H](NC(=O)Cn1cc(CCCNc2ccccn2)nn1)c1ccccc1`, the Activity (Integrin alpha-V/beta-3 [1]) was “Active”, the IC50H (Integrin alpha-V/beta-3 [2]) was 13 nM and the IC50L (Integrin alpha-V/beta-3 [2]) was 900 nM.

`O=C(O)C[C@H](NC(=O)Cn1cc(CCCNc2nc3ccccc3[nH]2)nn1)c1ccc(O)cc1` was tested, and the Activity (Integrin alpha-V/beta-3 [1]) was “Active”.

With `N=C(N)NCCCc1cn(CC(=O)N[C@@H](CC(=O)O)c2ccccc2)nn1` the Activity (Integrin alpha-V/beta-3 [1]) was “Active”.
